Experimental data reported in patent US11096977B2, “Development of a standardized and effect-optimized herbal extract of Wedelia chinensis and its use for treating disease” (Academia Sinica, priority 2015, dated 2021).

Experiments:
PC-3 cells = assay: CyQUANT direct cell proliferation assay, PC-3; assay type: cell-based; conditions: WCE 25 μg/ml or 10 nM docetaxel, 48 h
Method: (§1) After 48 h, viable cell numbers were determined using CyQUANT direct cell proliferation assay.

DU145 cells = assay: CyQUANT direct cell proliferation assay, DU145; assay type: cell-based; conditions: WCE 25 μg/ml or 10 nM docetaxel, 48 h
Method: as §1

[1] = test system: PC-3 AR-negative prostate cancer cells; assay: murine model for androgen independent prostate cancer, orthotopic PC-3 luciferase cells; assay type: in vivo, mice; conditions: daily WCE by gavage, weekly docetaxel into tail vein; 8 week course
Method: Tumor growth was measured weekly by bioluminescent imaging. Animals were also weighed weekly.

LNCaP-CR cells = assay: growth rate of LNCaP-CR cells; assay type: cell-based; conditions: 20 μg/ml enzalutamide
LNCaP cells = assay: growth rate of LNCaP cells; assay type: cell-based; conditions: 20 μg/ml enzalutamide

SMILES | growth of PC-3 cells (FIG. 3A) (PC-3 cells) | growth of DU145 cells (FIG. 3B) (DU145 cells) | body weight (FIG. 4B) [1] | growth of LNCaP-CR cells (FIG. 2D) (LNCaP-CR cells) | growth of LNCaP cells (FIG. 2C) (LNCaP cells)
CC(=O)O[C@@]12CO[C@@H]1C[C@H](O)[C@@]1(C)C(=O)[C@H](O)C3=C(C)[C@@H](OC(=O)[C@H](O)[C@@H](NC(=O)OC(C)(C)C)c4ccccc4)C[C@@](O)([C@@H](OC(=O)c4ccccc4)[C@H]21)C3(C)C [docetaxel] | inhibited growth | inhibited growth | large decrease in body weight |  | 
CNC(=O)c1ccc(N2C(=S)N(c3ccc(C#N)c(C(F)(F)F)c3)C(=O)C2(C)C)cc1F [enzalutamide] |  |  |  | significantly less growth inhibition | significantly inhibited the growth
